From US11993581B2, “Pyridazine compounds for inhibiting Nav1.8” (Lieber Institute, Inc., priority 2018, dated 2024)

molecular target: T1, human Nav1.8 (hNav1.8) ion channel (Homo sapiens, UniProt Q9Y5Y9); assay: Nav1.8 inhibition, estimated IC50 (Nav1.8 fluorescence, PatchXpress and/or IonFlux HT automated patch clamp assay); format: cell-based; settings: HEK293 cells stably expressing hNav1.8; determined using one or more of the described methods; read-out: Activity range (estimated IC50)
T1 construct: expressed in transfected cells
T1 sequence (Q9Y5Y9 whole entry): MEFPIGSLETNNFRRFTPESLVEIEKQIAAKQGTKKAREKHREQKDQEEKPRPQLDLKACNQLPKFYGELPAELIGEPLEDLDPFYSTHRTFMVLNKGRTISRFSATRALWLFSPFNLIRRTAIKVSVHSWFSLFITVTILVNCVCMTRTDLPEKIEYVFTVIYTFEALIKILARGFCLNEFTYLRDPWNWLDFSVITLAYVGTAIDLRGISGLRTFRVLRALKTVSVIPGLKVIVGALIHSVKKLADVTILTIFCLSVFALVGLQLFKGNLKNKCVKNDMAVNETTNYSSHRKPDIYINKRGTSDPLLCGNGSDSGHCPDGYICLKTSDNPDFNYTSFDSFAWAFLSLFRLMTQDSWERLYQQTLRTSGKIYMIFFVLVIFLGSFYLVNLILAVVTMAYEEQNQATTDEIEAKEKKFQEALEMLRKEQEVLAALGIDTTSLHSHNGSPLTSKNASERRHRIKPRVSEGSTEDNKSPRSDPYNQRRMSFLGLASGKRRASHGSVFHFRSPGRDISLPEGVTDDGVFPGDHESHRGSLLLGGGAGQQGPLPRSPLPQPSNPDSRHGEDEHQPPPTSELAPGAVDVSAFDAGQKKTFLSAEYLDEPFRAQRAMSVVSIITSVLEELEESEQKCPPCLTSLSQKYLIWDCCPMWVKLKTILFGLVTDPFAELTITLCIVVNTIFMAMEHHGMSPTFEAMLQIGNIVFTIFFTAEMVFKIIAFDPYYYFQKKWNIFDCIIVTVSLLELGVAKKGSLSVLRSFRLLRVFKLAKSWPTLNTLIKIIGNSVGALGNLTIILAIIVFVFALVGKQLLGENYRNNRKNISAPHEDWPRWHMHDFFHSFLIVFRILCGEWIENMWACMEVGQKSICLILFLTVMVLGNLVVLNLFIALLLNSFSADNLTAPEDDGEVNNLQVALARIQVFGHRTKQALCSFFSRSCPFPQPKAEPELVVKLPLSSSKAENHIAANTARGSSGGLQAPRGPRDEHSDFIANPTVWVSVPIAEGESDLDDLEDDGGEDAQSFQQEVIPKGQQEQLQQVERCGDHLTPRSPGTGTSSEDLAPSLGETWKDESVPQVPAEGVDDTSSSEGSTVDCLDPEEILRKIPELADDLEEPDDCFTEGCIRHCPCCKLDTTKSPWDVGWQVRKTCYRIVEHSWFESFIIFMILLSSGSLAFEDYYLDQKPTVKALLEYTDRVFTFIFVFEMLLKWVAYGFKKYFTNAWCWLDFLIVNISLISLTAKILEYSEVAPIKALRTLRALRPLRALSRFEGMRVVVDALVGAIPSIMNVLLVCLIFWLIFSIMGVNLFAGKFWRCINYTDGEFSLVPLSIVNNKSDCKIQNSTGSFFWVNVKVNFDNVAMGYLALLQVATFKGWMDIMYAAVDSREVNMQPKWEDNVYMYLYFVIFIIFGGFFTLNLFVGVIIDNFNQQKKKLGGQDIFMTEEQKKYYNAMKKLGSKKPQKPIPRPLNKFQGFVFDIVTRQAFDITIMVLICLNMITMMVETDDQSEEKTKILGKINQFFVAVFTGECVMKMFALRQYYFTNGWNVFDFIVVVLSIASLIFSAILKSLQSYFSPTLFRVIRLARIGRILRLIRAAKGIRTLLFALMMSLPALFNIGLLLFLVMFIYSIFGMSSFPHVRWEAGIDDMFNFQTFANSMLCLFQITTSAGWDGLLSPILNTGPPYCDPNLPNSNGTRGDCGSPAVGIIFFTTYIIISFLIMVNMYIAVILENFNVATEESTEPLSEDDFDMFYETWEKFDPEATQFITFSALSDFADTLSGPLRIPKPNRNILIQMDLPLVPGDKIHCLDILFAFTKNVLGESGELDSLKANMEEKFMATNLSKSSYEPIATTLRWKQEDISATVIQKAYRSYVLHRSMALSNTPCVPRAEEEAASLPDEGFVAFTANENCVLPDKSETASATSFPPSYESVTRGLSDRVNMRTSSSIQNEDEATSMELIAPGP
T1 sequence (Q07699 19-218 partner): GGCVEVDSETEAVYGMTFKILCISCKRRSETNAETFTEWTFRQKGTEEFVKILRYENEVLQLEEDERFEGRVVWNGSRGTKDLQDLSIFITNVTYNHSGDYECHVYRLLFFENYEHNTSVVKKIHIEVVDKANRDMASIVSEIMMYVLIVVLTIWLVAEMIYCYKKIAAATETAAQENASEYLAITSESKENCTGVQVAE
Procedure: The ability of pyridine carboxamide derivatives exemplified above to inhibit the Nav1.8 channel was determined using one or more of the methods described below.
HEK Nav1.8 β1/β2 Stably Expressing Cell Line
A HEK293 cell line stably expressing the human Nav1.8 (hNav1.8) ion channel with β1/β2 subunits was constructed. The cell line is suitable for IC50 determination in fluorescence and electrophysiological based assays. It is also suitable to conduct mechanism of action pharmacology studies in electrophysiological assays. HEK293 Nav1.8 cells are grown as adherent monolayers in DMEM/high glucose media, 10% fetal bovine serum, Na pyruvate (2 mM), Hepes (10 mM) with selection agents G418 (400 mg/L) and puromycin (0.5 mg/L) at 37 degrees C., 10% CO2.
Nav1.8 Fluorescence Inhibition Assay
Compounds were made up to or supplied as a 10-mM stock solution using DMSO as the vehicle. Concentration-response curves were generated using a Matrix multichannel pipettor. Compound source plates were made by diluting 10 mM compound stocks to create 500 μM (100×) solutions in DMSO in 96-well v-bottom plates. Compounds were then serially diluted in 100% DMSO to generate a 5 point, 4-fold dilution scheme dose response curve. 2 μL of the 100× dose response curves were then added to preincubation and stimulation assay plates. 100 μL of pre-incubation buffer and 200 μl of stimulation buffer was then added to the plates resulting in a final assay test concentration range of 5 μM to 0.02 μM with a final DMSO concentration of 1%.
On the day of assay, plates were washed to remove cell culture media using 2K EBSS buffer (135 mM NaCl, 2 mM KCl, 5 mM Glucose, 2 mM CaCl2, 1 mM MgCl2, 10 mM HEPES, pH 7.4). The Na-sensitive fluorescent dye, Asante Natrium Green-2 (ANG-2) was incubated for 60 min to allow equilibration and then washed with 2K EBSS. Plates were then transferred to a fluorescence plate reader (FLIPR™, Molecular Devices) for fluorescence measurement using an excitation wavelength of 490 nm and an emission wavelength of 565 nm. Compounds were pre-incubated for 5 min at final test concentration in the presence of ouabain (30 μM) to inhibit Na+ efflux through Na+/K+ exchanger. Following the pre-incubation phase, hNav1.8 channels were stimulated with 10 μM of the pyrethroid deltamethrin to prevent channel inactivation. The assay was run for 15 minutes with vehicle and 30 μM tetracaine serving as negative and positive controls, respectively. The peak change in fluorescence relative to negative and positive control wells was calculated and fit with a logistic equation to determine IC50.
PatchXpress Nav1.8 Inhibition Assay
HEK-Nav1.8 β1/β2 cells were recorded in whole cell patch-clamp using the PatchXpress automated patch clamp platforms (Molecular Devices). Cell suspensions were obtained by trypsinization of adherent monolayers, followed by gentle rocking for minimally 30 min. Compounds were prepared from 10 mM DMSO stocks.
Nav1.8 channel variants were evaluated using Protocol 1 in which cells were initially voltage clamped at a holding potential of −100 mV to maintain Nav1.8 in a closed resting state. After current amplitude becomes stable, the mid-point voltage of steady state inactivation was determined for each cell using a series of 5 sec conditioning steps to increasingly depolarized voltages (−100 to 0 mV) The holding potential was then reset to a voltage that produces ˜50% inactivation (Vhalf-set automatically via PatchXpress scripts) so that closed and inactivated channel inhibition could be assessed. Protocol 1 was run at a frequency of 0.1 Hz until current amplitude is steady (automatically determined by PatchXpress scripts). The effect of test reagent on Nav current amplitude was monitored using custom PatchXpress stability scripts which determines the timing of compound addition and washout.
Data were processed and analyzed using DataXpress 2.0 (Molecular Devices). […]

Row | SMILES | IC50 [nM]
1 | COc1ncccc1C(C)NC(=O)c1cnnc(-c2ccc(OCC3CC3)c(Cl)c2)c1 (centres unmarked) [Example 43, 6-(3-chloro-4-(cyclopropylmethoxy)phenyl)-N-(1-(2-methoxypyridin-3-yl)ethyl)pyridazine-4-carboxamide] | 500 to 1000
2 | COc1ncccc1CNC(=O)c1cnnc(-c2ccc(OCC3CC3)cc2)c1 [Example 48, 6-[4-(cyclopropylmethoxy)phenyl]-N-[(2-methoxy-3-pyridyl)methyl]pyridazine-4-carboxamide] | > 1000
3 | O=C(NCc1cc(F)cnc1N1CCOCC1)c1cnnc(-c2ccc(OCC3CC3)cc2)c1 [Example 49, 6-[4-(cyclopropylmethoxy)phenyl]-N-[(5-fluoro-2-morpholino-3-pyridyl)methyl]pyridazine-4-carboxamide] | > 1000
4 | CC1COCCN1c1ncccc1CNC(=O)c1cnnc(-c2ccc(OCC3CC3)cc2)c1 (centres unmarked) [Example 50, 6-[4-(cyclopropylmethoxy)phenyl]-N-[[2-(3-methylmorpholin-4-yl)-3-pyridyl]methyl]pyridazine-4-carboxamide] | > 1000
5 | O=C(NCc1cccnc1N1CC2(COC2)C1)c1cnnc(-c2ccc(OCC3CC3)cc2)c1 [Example 52, 6-[4-(cyclopropylmethoxy)phenyl]-N-[[2-(2-oxa-6-azaspiro[3.3]heptan-6-yl)-3-pyridyl]methyl]pyridazine-4-carboxamide] | > 1000
6 | N#Cc1ccc(-c2cc(C(=O)NCc3cc(F)cnc3N3CCOCC3)cnn2)cc1 [Example 53, 6-(4-cyanophenyl)-N-[(5-fluoro-2-morpholino-3-pyridyl)methyl]pyridazine-4-carboxamide] | 500 to 1000
7 | O=C(NCc1ccccc1N1CCOCC1)c1cnnc(-c2ccc(Cl)cc2)c1 [Example 55, 6-(4-chlorophenyl)-N-[(2-morpholinophenyl)methyl]pyridazine-4-carboxamide] | < 500
8 | O=C(NCc1ccccc1N1CCOCC1)c1cnnc(-c2ccc(OC(F)(F)F)cc2)c1 [Example 57, 6-[4-(trifluoromethoxy)phenyl]-N-[(2-morpholinophenyl)methyl]pyridazine-4-carboxamide] | < 500
9 | N#Cc1ccc(-c2cc(C(=O)NCc3ccccc3N3CCOCC3)cnn2)cc1 [Example 58, 6-(4-cyanophenyl)-N-[(2-morpholinophenyl)methyl]pyridazine-4-carboxamide] | < 500
10 | Cc1ccnc(N2CCOCC2)c1CNC(=O)c1cnnc(-c2ccc(OC(F)(F)F)cc2)c1 [Example 59, N-[(4-methyl-2-morpholino-3-pyridyl)methyl]-6-[4-(trifluoromethoxy)phenyl]pyridazine-4-carboxamide] | < 500
11 | Cc1ccnc(N2CCOCC2)c1CNC(=O)c1cnnc(-c2ccc(Cl)cc2)c1 [Example 60, 6-(4-chlorophenyl)-N-[(4-methyl-2-morpholino-3-pyridyl)methyl]pyridazine-4-carboxamide] | < 500

Next, values leading:

Row | IC50 [nM] | SMILES
12 | < 500 | CCC1CN(c2ncccc2CNC(=O)c2cnnc(-c3ccc(OCC4CC4)c(Cl)c3)c2)CCO1 (centres unmarked) [Example 41, 6-[3-chloro-4-(cyclopropylmethoxy)phenyl]-N-[[2-(2-ethylmorpholin-4-yl)-3-pyridyl]methyl]pyridazine-4-carboxamide]
13 | < 500 | CC(C)Oc1ncccc1CNC(=O)c1cnnc(-c2ccc(OCC3CC3)c(Cl)c2)c1 [Example 42, 6-[3-chloro-4-(cyclopropylmethoxy)phenyl]-N-[(2-isopropoxy-3-pyridyl)methyl]pyridazine-4-carboxamide]
14 | < 500 | O=C(NCc1cccnc1N1CCOCC1)c1cnnc(-c2ccc(OCC3CCC3)c(Cl)c2)c1 [Example 44, 6-[3-chloro-4-(cyclobutylmethoxy)phenyl]-N-[(2-morpholino-3-pyridyl)methyl]pyridazine-4-carboxamide]
15 | < 500 | CC(Oc1ccc(-c2cc(C(=O)NCc3cccnc3N3CCOCC3)cnn2)cc1Cl)C1CC1 (centres unmarked) [Example 45, 6-[3-chloro-4-(1-cyclopropylethoxy)phenyl]-N-[(2-morpholino-3-pyridyl)methyl]pyridazine-4-carboxamide]
16 | < 500 | O=C(NCc1cccnc1N1CCOCC1)c1cnnc(-c2ccc(OCC3CC3)c(F)c2)c1 [Example 46, 6-[4-(cyclopropylmethoxy)-3-fluoro-phenyl]-N-[(2-morpholino-3-pyridyl)methyl]pyridazine-4-carboxamide]
17 | < 500 | O=C(NCc1cccnc1N1CCOCC1)c1cnnc(-c2ccc(OCC3CC3)c(C(F)(F)F)c2)c1 [Example 47, 6-[4-(cyclopropylmethoxy)-3-(trifluoromethyl)phenyl]-N-[(2-morpholino-3-pyridyl)methyl]pyridazine-4-carboxamide]
